Data: US20250387403A1, “SELECTIVE SIGMA-2 RECEPTOR LIGANDS AS MODULATORS OF TMEM97” (BOARD OF REGENTS, THE UNIVERSITY OF TEXAS SYSTEM, priority 2022, published 2025)

What was measured:
[1] = system: spared nerve injury (SNI) model; assay: Spared nerve injury (SNI) neuropathic pain model; assay type: in vivo, mice
[2] = system: integrated stress response; assay: Integrated stress response; assay type: cell-based
neurite outgrowth = assay: Neurite outgrowth; assay type: cell-based

**Q.** Which results are given for OCCCN1CC[C@@H]2C[C@H]1c1cc(-c3ccc(C(F)(F)F)cc3)ccc12 [FEM-1689, 3-((1S,5R)-8-(4-(Trifluoromethyl)phenyl)-1,3,4,5-tetrahydro-2H-1,5-methanobenzo[c]azepin-2-yl) propan-1-ol]?
**A.** analgesic effect after SNI ([1]; global σ2R/TMEM97 knockout mouse): fails to produce an analgesic effect; mechanical hypersensitivity after SNI ([1]; wild-type male and female mice): reverses mechanical hypersensitivity; effect on the integrated stress response [2]: inhibits the integrated stress response; effect on neurite outgrowth (neurite outgrowth): promotes neurite outgrowth
